Read-outs that look alike come from different tables or passages of the source.
How the values were obtained:
[1] = octanol/water partition coefficients of Cu bis(thiosemicarbazone) complexes; assay type: physicochemical
[2] = ligand solubility (DMSO, water); assay type: physicochemical; conditions: crystalline form dissolved in DMSO
Experimental: Studies evaluating the compatibility of the bis(thiosemicarbazone) ligands with lyophilization based kit synthesis were conducted using H2PTSM as a model compound. The first of these studies evaluated the feasibility of ligand lyophilization and rapid reconstitution. The entire class of bis(thiosemicarbazone) compounds is very insoluble in water. Consequently, in order to prepare a principally aqueous solution for lyophilization, the crystalline form of the H2PTSM was dissolved at the maximum concentration in dimethylsulfoxide (DMSO), (200 mg/mL H2PTSM). […] To minimize the possibility of ligand precipitation, the DMSO solution was added to hot water (90° C.) during rapid stifling. This solution was then cooled to room temperature and assayed for potency using a spectrophotometer. The very small amount of DMSO in the aqueous solution is expected to sublimate along with water during lyophilization. In order to ensure maximum potency after lyophilization, an excipient (either dextrose [6.7 mg/mL], trehalose [6.7 mg/mL] or sodium acetate [5.4 mg/mL]) was added. The purpose of the excipient was to prevent the ligand from crystallizing out by maintaining dispersion in the cake formed during lyophilization. The sodium acetate performed the added function of buffering the final product to acceptable pH upon addition of 0.1-0.15 mL of ^62Zn/^62Cu generator eluted solution. […]

[3] = in humans; cited from earlier work
[4] = most animal species other than humans; cited from earlier work
[5] = cited from earlier work

With `CNC(=S)NN=C(C)C(C)=NNC(=S)NC` [H2ATSM, diacetyl-bis(N4-methylthiosemicarbazone)] the “difference in octanol/water partition coefficients” value ([1]; H2ATSM vs H2PTSM (Table 2)) was 0.34.
In the case of `CNC(=S)NN=CC(C)=NNC(=S)NC` [H2PTSM, pyruvaldehyde bis(N4-methylthiosemicarbazone)], the “maximum concentration in dimethylsulfoxide (DMSO)” value [2] is reported as 200 mg/mL.
In the case of `CN=C([S-])N/N=C/C(C)=N/NC([S-])=NC.[Cu+2]` [PTSM, Copper(II) ^62Cu pyruvaldehyde bis(N4-methylthiosemicarbazone)], the binding to blood [3] is listed as “significant binding” and the binding to blood [4] is listed as “low binding”.
For `CCC(C=NNC(N)=S)=NNC(N)=S.[Cu]` [ETS, ^62Cu ethylglyoxal bis(thiosemicarbazone)], the “log P” value ([1]; octanol/water, from measured partition coefficients P of the corresponding 67Cu-complexes) is given as 1.35 and the “binding to blood plasma” value [5] is given as “low reversible binding”.

— patent publication US8562946B2, “Miniaturized 62Zn/62Cu generator for high concentration clinical delivery of 62Cu kit formulation for the facile preparation of radiolabeled Cu-bis(thiosemicarbazone) compounds” (Proportional Technologies, Inc., priority 2003, dated 2013)
